In PubChem BioAssay (NCI):
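Dose response: 5 concentrations. Exposure: 48 h. Format: 96-well plates. Endpoint: linear interpolation; highest concentration if not reached. TGI denotes the concentration required for complete inhibition of growth.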

Columns and labels:
Test in all cases: NCI-60 cell line screen, 48 h
[1] = tested on: OVCAR-8 ovarian
[2] = tested on: DMS 273 small cell lung
[3] = tested on: HOP-92 NSCLC
[4] = tested on: KM12 colon
[5] = tested on: HCT-116 colon
[6] = tested on: SN12C renal
[7] = tested on: HOP-18 NSCLC
[8] = tested on: A549 NSCLC
[9] = tested on: LOX IMVI melanoma
[10] = tested on: SNB-78 CNS
[11] = tested on: SK-OV-3 ovarian
[12] = tested on: OVCAR-4 ovarian
[13] = tested on: K-562 leukemia
[14] = tested on: DLD-1 colon
[15] = tested on: NCI-H226 lung
[16] = tested on: ACHN renal
[17] = tested on: EKVX NSCLC
[18] = tested on: IGROV1 ovarian
[19] = tested on: HCT-15 colon
[20] = tested on: HOP-62 NSCLC
[21] = tested on: HL-60(TB) leukemia
[22] = tested on: CAKI-1 renal
[23] = tested on: SK-MEL-2 melanoma
[24] = tested on: M14 melanoma
[25] = tested on: SF-268 CNS
[26] = tested on: RPMI-8226 leukemia
[27] = tested on: NCI-H23 lung
[28] = tested on: CCRF-CEM leukemia
[29] = tested on: UACC-62 melanoma
[30] = tested on: TK-10 renal
[31] = tested on: MOLT-4 leukemia
[32] = tested on: SK-MEL-28 melanoma
[33] = tested on: XF 498 CNS
[34] = tested on: 786-0 renal
[35] = tested on: UO-31 renal
[36] = tested on: SR leukemia
[37] = tested on: HT29 colon
[38] = tested on: SK-MEL-5 melanoma
[39] = tested on: RXF 393 renal
[40] = tested on: M19-MEL melanoma
[41] = tested on: U251 CNS
[42] = tested on: OVCAR-3 ovarian
[43] = tested on: SF-295 CNS
[44] = tested on: SF-539 CNS
[45] = tested on: OVCAR-5 ovarian
[46] = tested on: NCI-H460 lung
[47] = tested on: SW-620 colon
[48] = tested on: NCI-H522 lung
[49] = tested on: COLO 205 colon
[50] = tested on: SNB-75 CNS
[51] = tested on: RXF-631 renal
[52] = tested on: A498 renal
[53] = tested on: SNB-19 CNS
[54] = tested on: MALME-3M melanoma
[55] = tested on: HCC-2998 colon
[56] = tested on: LXFL 529 NSCLC
[57] = tested on: KM20L2 colon
[58] = tested on: UACC-257 melanoma
[59] = tested on: DMS 114 small cell lung

Measured: TGI

COC(=O)CCC(=O)N1Cc2cc(C)ccc2N(C(=O)CCC(=O)OC)Cc2cc(C)ccc21
not listed: [50] | [51] | [52] | [53] | [54] | [55] | [56] | [57] | [58] | [59]
> 100 µM: all other assays above

CCOC(=O)C=C1CCN(C(=O)c2ccccc2)CC1
0.284 µM: [23]
not listed: [15] | [22] | [48] | [59]
> 100 µM: all other assays above

Nc1cc(=O)[nH]c(SC2=NC(N)CC(O)C2)n1 (stereo not drawn)
not listed: [5] | [8] | [21] | [25] | [39] | [51] | [52]
> 100 µM: all other assays above

NS(=O)(=O)c1cc2c(cc1Cl)NC(C(=O)c1cc(=O)c3ccc(O)cc3o1)=NS2(=O)=O
not listed: [51] | [56]
> 100 µM: all other assays above
